The term mortality denotes the share of the test organisms that died. A lower mortality goes with more survivors. The Km is the substrate concentration at which the rate is half of its maximum.

Where two headings read alike, the source gives them in different places.

In one data set the test system is AChE. The experiment in a line: AChE activity assay in homogenized honeybees with paraoxon. The data set is classed as biochemical, honeybee. The following applies: 0.5 mM paraoxon. An excerpt:
FIGS. 5A-5F. Characterization of OPT-PIM efficacy through AChE activity assay and bee survival experiments. FIG. 5A is a schematic showing that formation of thiocholine from acetylthiocholine through AChE cleavage can be characterized using 5,5′-dithiobis-2-nitrobenzoic acid (DTNB). DTNB and thiocholine react to form TNB^2-, the absorbance of which can be measured at 412 nm. […] For this experiment, n=9. The positive control is homogenized honeybee cells without any paraoxon treatment; the negative control is homogenized honeybee cells treated with paraoxon but no free OPT or OPT-PIMs treatment. […]. […] FIG. 5E is a plot of exposure to paraoxon (15 μg g^−1 pollen) over 10 days (n=50). FIG. 5F is a plot of exposure to malathion (750 μg g^−1 pollen) over 10 days (n=50). Statistical analysis was performed by using one-way ANOVA tests (FIGS. 5B and 5D). Data are presented as means and error bars represent the standard deviation.
Efficacy and survival studies. The characterization of OPT-PIM efficacy was further validated via quantification of AChE activity when mixed with the above described treatment and paraoxon. […] Acetylthiocholine cleavage via AChE can be used to quantify AChE activity, as the thiocholine product reacts with DTNB to form TNB^2−, which has an absorbance at 412 nm (FIG. 5A). […]

Data set [1] has as its system bumblebees. Description: contaminated pollen balls fed without enzyme treatment. The following applies: no enzyme treatment, after one week.
For the next data set, the system named is honeybees. The following applies: cited from earlier work.
Data set [2] deals with acetylcholinesterase (AChE). The following applies: versus malathion; cited from earlier work.
Data set [3] can be described thus: malathion hydrolysis assay (DTNB). The data set is classed as biochemical. The following applies: OPT 0.5 mg ml^−1, 0.44 mM malathion.
The format of data set [4] is biochemical. As to the method:
Further experiments were aimed at better understanding the stability of the detoxifying system under significant thermal stress, as any treatment could experience high summer temperatures when administered to bees. […] Thus, experiments were conducted to determine whether microparticle encapsulation offers any protection from thermal denaturation. […]. […] The foregoing result is important for the potential application of the present design, as it has been shown capable of being administered at elevated temperatures.

The conditions of data set [5]: cited from earlier work.
In data set [6] the test system is bumblebees. The data set is classed as in vivo, Bombus impatiens. From the text:
(§1) FIGS. 5A-5F. Characterization of OPT-PIM efficacy through AChE activity assay and bee survival experiments. FIG. 5A is a schematic showing that formation of thiocholine from acetylthiocholine through AChE cleavage can be characterized using 5,5′-dithiobis-2-nitrobenzoic acid (DTNB). DTNB and thiocholine react to form TNB^2-, the absorbance of which can be measured at 412 nm. […] For this experiment, n=9. The positive control is homogenized honeybee cells without any paraoxon treatment; the negative control is homogenized honeybee cells treated with paraoxon but no free OPT or OPT-PIMs treatment. […] FIG. 5E is a plot of exposure to paraoxon (15 μg g^−1 pollen) over 10 days (n=50). FIG. 5F is a plot of exposure to malathion (750 μg g^−1 pollen) over 10 days (n=50). Statistical analysis was performed by using one-way ANOVA tests (FIGS. 5B and 5D). Data are presented as means and error bars represent the standard deviation.
(§2) Bumblebees consume approximately […] depending on body mass. Based on this figure, pollen balls were initially formed containing 0.432 μg g^−1 paraoxon and 9.383 μg g^−1 malathion to feed without enzyme treatment as a negative control. […] Pollen balls were tested containing 50 μg g^−1 paraoxon over 12 hours to measure the OPT-PIM impact against acute exposure.

The conditions of data set [7]: cited from earlier work. The source holds these as a separate data set.
The format of data set [8] is biochemical. The following applies: room temperature (25° C.). As to the method:
To gauge the time taken for treatment to lose functionality, bioactivity of each group treatment relative to OPT-PIMs was measured over time when kept at room temperature (25° C.). […] OPT-PIMs stored at 4° C. maintained almost 100% activity after 14 d (FIG. 3G). The microparticle's capacity for long-term bioactivity and protein sequestration indicates a practical shelf life of the design. Other enzyme-engineering efforts, such as genetic engineering of the catalytic and binding pockets, introducing additional chemical functionalities, such as disulfide bridges or fluorine moieties, or incorporation of additives such as sugars, polyols, detergents, polymers and amino acids, may improve the catalytic efficiency of OPT and further enhance its storage stability.

The format of data set [9] is biochemical. Conditions: for relative activity in paraoxon hydrolysis: OPT 0.5 mg ml^−1, 0.5 mM paraoxon, normalized to OPT-PIMs at pH 7.4.
Data set [10] concerns bumblebees. Description: bumblebee survival on malathion-contaminated pollen balls. The class given is in vivo, Bombus impatiens.
Source text: as §1, §2

Data set [11] is classed as biochemical. Conditions: methyl paraoxon, visible nitrophenol formation. From the text: Considering the loading efficiency decrease at higher PFCs and the intrinsic value of OPT, 5% was selected as a baseline to test OPT loading in PIMs. OPT presented 88.1% PLE (PLC=4.43%) at 5% PFC and 90.1% PLE (PLC=1.81%) at 2% PFC (FIG. 3C). […]. this dilution offered adequate sucrose to render the solution sufficiently attractive to bumblebees for consumption.

`CCOP(=O)(OCC)Oc1ccc([N+](=O)[O-])cc1` [paraoxon]: the “relative AChE activity reduction” value in the data set with AChE (no free OPT or OPT-PIMs treatment (negative control)) is reported as ~72%. Further, in the data set with bumblebees [1] (0.432 μg g^−1 paraoxon in pollen balls), the “health effect of contaminated pollen balls” value is recorded as “no health deterioration”. Besides, the “oral LD50 for honeybees” value in the data set with honeybees was 0.0175 μg per bee.
For the molecule `CCOC(=O)CC(SP(=O)(OC)OC)C(=O)OCC` (centres unmarked) [Malaoxon], the “strength of AChE inhibition relative to malathion” value in data set [2] was 1000 fold.
For `CCOC(=O)CC(SP(=S)(OC)OC)C(=O)OCC` (centres unmarked) [malathion], the “health effect of contaminated pollen balls” value in the data set on bumblebees [1] (9.383 μg g^−1 malathion in pollen balls) is “no health deterioration”. Also, in the data set with honeybees, the “oral LD50” value is on record as 0.38 μg/bee and the “oral LD50 for honeybees” value was 0.38 μg per bee.
Turning to `CCOP(=S)(OCC)Oc1ccc([N+](=O)[O-])cc1` [parathion], in the data set with honeybees, the “oral LD50” value is 0.175 μg/bee.
With “amidohydrolase phosphotriesterase [free OPT]”, the “relative activity in malathion hydrolysis” value in [3] (pH 4.8) amounted to 0.6%; in [3] (pH 7.4) it was 17.1%. Besides, the “relative activity in paraoxon hydrolysis after incubation” value in [4] (30° C., relative to OPT-PIMs at 30° C.) is on record as “half the bioactivity of OPT-PIMs”; in [4] (50° C., normalized to OPT-PIMs at 30° C.), 36.5%; in [4] (temperature>60° C., normalized to OPT-PIMs at 30° C.) it was 5.0%. In addition, the “AChE activity retained less than OPT-PIMs-treated samples” value in the data set on AChE stood at 18.8%. Also, the “Kcat Km^−1” value in data set [5] was 7.6e+07 M⁻¹ s⁻¹. For the same molecule, the mortality with bumblebees [6] (15 μg g^−1 paraoxon pollen balls, 50 μg ml^−1 OPT treatments, after 5 days) was 100%; with bumblebees [10] (750 μg g^−1 malathion pollen balls, after 5 days) it was 100%. In the data set with bumblebees [6] (50 μg g^−1 paraoxon pollen balls, 12 hours), this molecule gave a fatalities of 62.5%. Moreover, in [7] (Co2+ OPT complex, pH 8.0-9.5), the deactivation temperature is 60 °C. Moreover, the “temperature at which thermostability is maintained” value in [7] (Co2+ OPT complex, pH 8.0-9.5) was “less than 45 °C”. The “activity relative to maximum potential” value in data set [7] (pH 7.0) is on record as “less than half of its maximum potential”. Besides, the “activity retained on storage” value in data set [8] (after 7 days) is given as ~30%; in data set [8] (after 14 days) it was < 10%. In addition, the “relative activity in paraoxon hydrolysis” value in data set [9] (pH 4.8) is given as 1.7%; in data set [9] (pH 7.4), 49.7%. Besides, the Michaelis constant (Km) in data set [9] (paraoxon, in 2 g ml^−1 sucrose) is 4.8 mM. The “maximum velocity (Vmax)” value in data set [9] (paraoxon, in 2 g ml^−1 sucrose) was found to be 0.13 mM/min. In the data set with bumblebees [10] (microcolonies fed malathion-contaminated pollen patties, within/after 5 days (overview)), the survival is on record as 0%. Also, the “OPT concentration sufficient to initiate rapid hydrolysis” value in [11] turned out to be 0.5 mg/mL.

Source of the values: patent US12041939B2, “Enzyme-loaded pollen-mimicking microparticles for organophosphate detoxification of insect pollinators” (priority 2020, dated 2024).
